Reference: publication PMC10710507 (Nature Communications, 2023)
Square brackets hold non-standard residues; d marks the D form. Ends that are not written are not given here. Phe(4-CF3) = N[C@@H](Cc1ccc(C(F)(F)F)cc1)C(=O)O

Assays:
[1] = system: free fatty acid receptor 2, FFA2; conditions: cited from earlier work
Excerpt: Whether NT binds to the orthosteric binding pocket of the intermediate state or occupies different conformations in distinct pockets remains to be fully answered. […] Intermediate-state binding pockets have been attributed to a sequential activation mechanism of the free fatty acid receptor 2, FFA2, by the previously considered allosteric modulator, 4-CMTB[62]. 4-CMTB binds to the orthoste ...

NTS1 = conditions: cited from earlier work
Excerpt: The ECL2 of many GPCRs forms a lid over the ligand-bound orthosteric binding pocket of the receptor via interaction with the N-terminal region or ECL3 of the receptor, which can increase the affinity of the ligand by slowing down its dissociation rate[35],[37]. Although such a formation has not been confirmed experimentally for NTS1, all structures published to date on the complex of NT with NTS1 show close contacts between the N-terminal region and the ECL2 of NTS1 (PDB: 4XEE, 6YVR, 4BUO)[21],[33],[34]. However, the structure of these parts of NTS1 in the apo-state or when complexed with smal ...

enNTS1 [2] = test: Ligand-observed 19F NMR / 19F STD, enNTS1 complex; format: binding, rat; conditions: 298 K, pH 7.4
enNTS1-R213 = test: Ligand-observed 19F NMR / 19F STD, enNTS1-R213 complex; format: binding, rat; conditions: 298 K, pH 7.4
Description: The peptide-receptor complex was formed by addition of a 10-fold excess of peptide to receptor. The solution was incubated on ice for one hour, followed by buffer exchange to remove free peptide in 50 mM potassium phosphate pH 7.4, 100 mM NaCl, 0.05% DDM, 50 µM EDTA, 0.02% NaN3. 100 μM of freshly formed complexes were mixed with 10 μM free receptor to ensure excess receptor. The samples were adjusted to 10% D2O, 500 μM DSS and 20 μM TFA as lock nuclei, ^1H and ^19F references, respectively.
For NMR experiments in the presence of Gαiq, enNTS1-R213 was incubated on ice with 5-fold Y11tfmF-NT8-13 over receptor for 30 min and then 5-fold Gαiq over receptor with incubation for another 30 min. […]
^19F saturation transfer difference (STD) experiments were acquired using the STDDiff pulse sequence from the Bruker library. […] These were interleaved with equivalent off-resonance spectra, where the offset was set equidistant to the monitored and saturated peaks. The intensities of the monitored peak in the presence of on-resonance saturation were normalized against the spectra collected in the absence of saturation and subtracted from the intensities in the presence of the equidistant off-resonance spectra to account for off-resonance effects. […]

enNTS1 [3] = test: Cell surface competition binding assay, enNTS1; parameters: species or system rat; conditions: HEK293F cells, competition with 5 nM Cy5-NT8-13, 1 h, room temperature, flow cytometry, n = 4
Description: 100,000 HEK293F cells (Invitrogen) stably expressing receptor and the cytosolic mCherry fluorophore were suspended in complete phenol red free DMEM (10% FBS, 1% L-Glutamine, 1% penicillin-streptomycin) and were added to the relevant ligand concentrations in the presence of 5 nM Cy5-NT8-13 for enNTS1 and wt-rNTS1 or 2 nM FAM-NT8-13 for rNTS1-R213L. Cells were then gently agitated on an orbital shaker in the dark for 1 h at room temperature for ligand binding to reach a state of equilibrium. The mean fluorescence intensity of bound FAM-NT8-13 and Cy5-NT8-13 was measured with a CytoflexS (Beckman-Coulter) flow cytometer using the 525/40 and 660/20 filter, respectively. Data was then analysed using the One site – Fit Ki function on GraphPad Prism (version: 9.3.1, Graphpad Software, San Diego, CA). The data for enNTS1 and wt-NTS1 are mean of four replicates (n = 4) and the assays with rNTS1-R213L are performed in triplicates (n = 3).
Supplementary Figure 3. Functional characterization of the NT peptides used in this study. The cell-surface binding of peptides to (a) wt-rNTS1 and enNTS1 (b) rNTS1-R213L. The competition binding curves are for NT8-13 (black circles) , Y11tfmF-NT8-13 (red triangles).
Cy5-labellled NT8-13 and FAM -labelled NT8-13 was used as a fluorescent competitor for investigating the binding. […]

wt-rNTS1 [4] = test: G protein BRET assay, wt-rNTS1; format: cell-based, rat; conditions: HEK293T cells, n = 3
Description: (§1) 500,000 HEK293T cells were seeded per well in a 6-well plate in complete DMEM (10% FBS, 1% L-Glutamine, 1% penicillin-streptomycin). Cells were transfected the following day with a solution of Opti-mem and lipofectamine 2000 at a quantity of 1 µL/1 µg of DNA. For β-arrestin-2 recruitment assay cells were co-transfected with 250 ng of either pcDNA 3.1 zeo-HA-FLAG-wt-rNTS1-nLuc or pcDNA 3.1 zeo-HA-FLAG-rNTS1-R213L-nLuc and with 600 ng of pcDNA human β-arrestin-2-Venus. In G protein BRET assays, cells were co-transfected with 750 ng of pCSC-rNTS1-IRES-mCherry, pCSC-rNTS1-R213L-IRES-mCherry or pCSC-enNTS1-IRES-mCherry and with 250 ng of Gαi (for enNTS1) or Gq (for rNTS1 and rNTS1-R213L) BRET biosensor. […] The plate was then incubated at 37 °C for 10 min in a PHERAstar® FSX microplate reader (BMG LABTECH). Dual luminescence of 450/535 nm was then measured for 3 min before manually adding 10 µL of 10x ligand concentration or vehicle to respective wells before completing the time course measurement. The BRET ratio was calculated as Venus emission to nLuc emission. […] Concentration–response curves were calculated by first integrating the area under the BRET ratio over time plot using the Area Under the Curve function and then plotted against ligand concentration. […]

wt-rNTS1 [5] = test: β-arrestin-2 recruitment BRET assay, wt-rNTS1; format: cell-based, rat; conditions: HEK293T cells, β-arrestin-2-Venus, 37 °C, n = 3
Description: as §1

[6] = 19F NMR interaction with DDM micelles; format: physicochemical; conditions: 298 K, Supplementary Fig. 5b
Description: All NMR experiments were performed on a Bruker 700 MHz Avance IIIHD spectrometer running Topspin 3.2.7 and equipped with a ^1H/^13C/^15N triple-resonance TCI cryoprobe, where the proton channel was tuned to ^19F, ~658 MHz. The 1D spectra were collected in a pulse-acquire manner at 298 K, with the carrier frequency set at −65 ppm. 512 to 2048 scans were collected per spectrum with 16 K of data points and a spectral width of 49 ppm. 2680 scans were collected for the sample of Y11tfmF-NT8-13 in complex with enNTS1 in the presence of Gαiq. The spectrum on the complex of ^19F-labelled peptides and ^19F-labelled receptor were processed in Topspin vs3.4 using, respectively, 50 Hz and 10 Hz line broadening and zero filling prior to Fourier transformation. Spectral deconvolution was performed in MNova (version: 10.0.2-15465, Mestrelab Research).

[7] = biological target: T1, wt-rNTS1 (wild-type rat neurotensin receptor 1) on HEK293F cells (rat, UniProt P20789 1-424); test: flow cytometry on cells; cell surface competition: 100,000 HEK293F cells stably expressing receptor, unlabelled ligand varied against 5 nM Cy5-NT8-13, 1 h at room temperature, mCherry-positive single cells, One site - Fit Ki; conditions: one partner purified
T1 construct: also called wt-NTS1; source: HEK293F cells stably expressing receptor and cytosolic mCherry
T1 sequence (P20789 whole entry): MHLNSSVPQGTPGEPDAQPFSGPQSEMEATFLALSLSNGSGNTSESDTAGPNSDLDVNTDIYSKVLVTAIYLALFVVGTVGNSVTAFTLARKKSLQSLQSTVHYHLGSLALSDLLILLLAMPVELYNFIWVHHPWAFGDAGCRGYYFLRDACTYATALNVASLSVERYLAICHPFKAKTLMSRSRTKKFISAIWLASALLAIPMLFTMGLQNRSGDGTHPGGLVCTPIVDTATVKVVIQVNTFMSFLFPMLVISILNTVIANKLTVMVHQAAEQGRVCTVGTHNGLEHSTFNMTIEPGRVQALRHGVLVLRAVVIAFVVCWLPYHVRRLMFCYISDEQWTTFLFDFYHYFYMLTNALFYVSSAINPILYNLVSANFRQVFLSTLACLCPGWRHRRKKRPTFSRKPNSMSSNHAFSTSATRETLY

In the case of CC(C)C(C(=O)Nc1nccs1)c1ccc(Cl)cc1 (centres unmarked) [4-CMTB], the “binding and signalling at FFA2” value [1] is given as “binds to the orthosteric binding pocket of FFA2, where it primarily initiates downstream orthosteric signalling followed by diffusion into an allosteric pocket”.

For COc1cccc(OC)c1-c1cc(C(=O)N[C@@H](CC(C)C)C(=O)O)nn1-c1ccnc2cc(Cl)ccc12 [RTI-3a], the “pharmacological class at NTS1” value (NTS1) is listed as “partial agonist”.

In the case of COc1cccc(OC)c1-c1cc(C(=O)NC2(C(=O)O)C3CC4CC(C3)CC2C4)nn1-c1ccnc2cc(Cl)ccc12 (centres unmarked) [SR48692], the “pharmacological class at NTS1” value (NTS1) is listed as “inverse agonists”.

For COc1cccc(OC)c1-c1cc(C(=O)NC2(C(=O)O)C3CC4CC(C3)CC2C4)nn1-c1ccc(C(=O)N(C)CCCN(C)C)cc1C(C)C (centres unmarked) [SR142948A], the “pharmacological class at NTS1” value (NTS1) is listed as “inverse agonists”.

With “Y11tfmF-NT8-13: truncated version of 19F-NT (RRP[Phe(4-CF3)]IL)” the “exchange rate constant from S1 to S2, k12” value (enNTS1 [2]) was 1.23 s⁻¹, the “exchange rate constant from S2 to S1, k21” value (enNTS1 [2]) was 0.08 s⁻¹ and the “exchange rate constant k12 (S1 to S2)” value (enNTS1-R213) was 0.14 s⁻¹. The “exchange rate constant k21 (S2 to S1)” value (enNTS1-R213) was 0.26 s⁻¹.

In the case of “Y11tfmF-NT: fluorinated analogue of NT, Tyr11 substituted with para-trifluoromethyl-phenylalanine (ELYENKPRRPFIL; para-trifluoromethyl-phenylalanine (tfmF) at position 11; pyroglutamate (pE) at position 1 as in NT)”, the “affinity for enNTS1 (effect of CF3 moiety)” value (enNTS1 [3]) is reported as “unaffected”, the “activation of wt-rNTS1” value (wt-rNTS1 [4]; BRET assays) is reported as “can fully activate wt-rNTS1” and the “efficacy in G protein BRET assay” value (wt-rNTS1 [4]; Gq BRET biosensor, 37 °C) is reported as “equally efficacious”. For the same molecule, the “efficacy in β-arrestin recruitment BRET assay” value (wt-rNTS1 [5]) was “equally efficacious” and the “effect of DDM on 19F NMR signal of the peptide” value [6] was “not perturbed in the presence of DDM”.

B1: Y11tfmF-NT (peptide)
peptide: ELYENKPRRPFIL
modifications: para-trifluoromethyl-phenylalanine (tfmF) at position 11; pyroglutamate (pE) at position 1 as in NT
notes: in this molecule Tyr11 is replaced by tfmF (see substitutions); numbers count on: the mature neurotensin peptide; The new residue is the unnatural amino acid para-trifluoromethyl-phenylalanine, written F in the substitution row; also called 19F-NT; fluorinated analogue of NT; source: synthetic peptide (Fmoc solid phase synthesis, reverse-phase HPLC)
With B1 the “fold reduction of affinity against NT” value [7] was 100 fold.
